From PubChem BioAssay (NCI)
Where “and” joins values, the source holds several entries; their conditions need not be identical. Equal entries are not always repeated.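 Grown in 96-well plates, cells were treated for 48 hours with each compound at five concentrations. Insufficient inhibition: endpoint recorded as highest concentration tested. Abbreviation: GI50, concentration required for 50% inhibition of growth. Definition used: TGI = concentration required for complete inhibition of growth.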

Legend:
Assay in all cases: growth of human tumour cells (NCI), 48 h
[1] = test system: CAKI-1 renal
[2] = test system: HCT-15 colon
[3] = test system: LOX IMVI melanoma
[4] = test system: NCI-H522 lung
[5] = test system: NCI/ADR-RES ovarian
[6] = test system: OVCAR-3 ovarian
[7] = test system: SK-OV-3 ovarian
[8] = test system: SN12C renal

Row | SMILES | TGI [1] | TGI [2] [µM] | TGI [3] | TGI [4] [µM] | TGI [5] [µM] | TGI [6] [µM] | TGI [7] [µM] | TGI [8] [µM] | GI50 [1] [µM] | GI50 [2] [µM] | GI50 [3] [µM] | GI50 [4] [µM] | GI50 [5] [µM] | GI50 [6] | GI50 [7] [µM] | GI50 [8] [µM]
1 | ON(CCc1ccccn1)Cc1ccccc1 | > 100 µM | > 100 | > 100 µM | > 100 | > 100 | > 100 | > 100 | > 100 |  |  |  |  |  |  |  | 
2 | CN(C)CC1CCn2c(c(C3=C(c4cn(C)c5ccccc45)C(=O)NC3=O)c3ccccc32)C1 (stereo not drawn) | 7.66 µM | 10.1 | 7.83 µM | 7.95 | 16.6 | 8.15 | 10.5 | 8.11 | 3.44 | 4.1 | 3.86 | 4.07 | 5.17 | 3.91 µM | 4.62 | 3.89
3 | CO[C@H]1CC[C@@]2(C)C(=CC[C@H]3[C@@H]4C[C@H](O)C[C@@]4(C)CC[C@@H]32)C1 | 16.3 µM | 23.2 | 24.5 µM | 15.5 | 39.9 | 5.63 | 49 | 22 | 2.93 | 5.04 | 6.17 | 3.96 | 4.17 | 2.47 µM | 4.46 | 6.61
4 | O=C(O)CC1(C(=O)O)CCCCC1 | > 100 µM | > 100 | > 100 µM | > 100 | > 100 | > 100 | > 100 | > 100 |  |  |  |  |  |  |  | 
5 | COc1ccc(Nc2ccnc(NCCCNc3ccnc4cc(Cl)ccc34)n2)cc1 | 2.41 µM | 1.76 | 1.27 µM | 3.67 | 10.4 | 3.24 | 3.18 | 8.94 | 1.15 | 0.397 | 0.322 | 1.62 | 2.78 | 1.56 µM | 1.68 | 1.59
6 | O=C(Nc1ccc(Br)c(Cl)c1)c1cc(F)ccc1O | 3.46 µM | 6.66 | 3.04 µM | 2.93 | > 15.6 | > 50 | 3.79 | 8.91 | 0.826 | 0.888 | 0.553 | 0.238 | 1.04 | 0.481 µM | 0.633 | 0.533
7 | Cc1ccc2sc3c(NCCCNCCO)nc4ccccc4c3c(=O)c2c1 | 2.82 µM | 2.92 | 2.94 µM | 3.43 | 3.51 | 3.26 | 3.02 | 3.16 | 1.43 | 1.48 | 1.49 | 1.66 | 1.78 | 1.75 µM | 1.45 | 1.6
8 | CCCC(=O)NNc1[nH]c(-c2ccc(OC)cc2)cc1C(=O)OCC | 25.7 µM | 21.3 | 30.5 µM | 50 | 47.4 | 31.1 | > 100 | 30.9 | 12.5 | 9.47 | 16.8 | 24 | 19.2 | 15.5 µM | > 100 | 17.1
9 | COc1ccc(-c2nc(-c3nc4cc(C)c(C)cc4[nH]3)cc3c2[nH]c2ccccc23)cc1 | 44.5 µM | 72.5 | 11.2 µM | 13.5 | > 100 | 4.6 | 48.1 | > 100 | 2.44 | 2.68 | 3.08 | 3 | 6.37 | 2.25 µM | 13 | 5.54
10 | CN1CCN(Cc2ccc(Nc3ncc(Cl)c(Nc4ccccc4S(=O)(=O)N(C)C)n3)cc2)CC1 | 1.09 µM |  | 0.124 µM | 0.255 | 1.24 | > 100 | > 100 | 1.23 | 0.0377 |  | < 0.0143 | < 0.0246 | 0.0747 | 0.061 µM | 0.219 | 0.0399
11 | Cn1cnc2c(NCc3ccccc3)nc(NCCO)nc21 | > 90.6 µM and 265 µM | > 500 | 81.4 µM and > 395 µM | 322 | 319 | > 406 | > 460 |  | 63.6 | 129 | 48.4 | 90.6 |  | 33 µM and 115 µM | 241 | 
12 | C[C@]12CCC(=O)C=C1CC[C@@H]1[C@@H]2CC[C@]2(C)C(=O)/C(=C/c3cccc(OCCN4CCOCC4)c3)C[C@@H]12 | 48.3 µM | 42.1 | 26.6 µM | 26.4 |  | 16 | > 100 | 63.6 | 11.9 | 5.29 | 9.44 | 8 |  | 3.91 µM | 11.7 | 16.7
13 | CC(C)(O)[C@H]1[C@@H]2OC(=O)[C@H]1[C@]1(O)C[C@H]3OC34C(=O)O[C@H]2[C@@]41C (stereo partly drawn) (tested in a mixture with another compound) | > 100 µM | > 100 | > 100 µM | > 100 |  | > 100 | > 100 | > 100 |  |  |  |  |  |  |  | 
14 | CC[C@H](C)C(=O)O[C@H]1CCC=C2C=C[C@H](C)C(CCC3C[C@@H](O)CC(=O)O3)[C@H]21 (stereo partly drawn) | 4.96 µM | > 100 | > 100 µM |  | > 100 | > 100 | > 100 | > 100 | 1.76 | 4.83 | 0.965 |  | 2.3 |  |  | 3.5
15 | CC1(C)C2CCC13C(=O)C1OC3(C2)C2C(=O)c3c(O)ccc(O)c3C(=O)C12 (stereo not drawn) | 18.1 µM | > 54 | > 100 µM | > 100 | 59.1 |  | > 100 | 35.7 | 4.31 | 18.5 | 32.2 | 38.8 | 17.5 |  | 42.2 | 16.3
16 | O=C(NCC#CCO)C(F)(F)F | > 100 µM | > 100 | > 100 µM | > 100 |  |  | > 100 | > 100 |  |  |  |  |  |  |  | 
